What all share (format): in vivo, Arabidopsis thaliana
Assay [1] deals with Arabidopsis seedlings. In words: Dose-response analysis for somatic embryo induction in containers (circa 30 seeds in 30 ml medium; FIG. 2, FIG. 4). The text has this:
(§1) The chemical screen was based on a modified version of an Arabidopsis somatic embryogenesis protocol that uses germinated seeds as explants (see Kobayashi et al., 2010 Kobayashi T, Nagayama Y, Higashi K and Kobayashi M. (2010). Establishment of a tissue culture system for somatic embryogenesis from germinating embryos of Arabidopsis thaliana Plant Biotech. 27: 359-364). In the original protocol, seeds were germinated on solid medium for one day, then the embryos were removed from the seed coat and transferred to solid media containing 4.5 μM 2,4-D to stimulate somatic embryo development. In this example, the protocol is simplified by germinating and culturing the seeds continuously in liquid medium containing 1 μM 2,4-D. Under optimized culture conditions (circa 30 seeds in 30 ml medium) approximately 18% of Col0 seeds form somatic embryos.
Approximately 10 surface-sterilized Columbia (Col-0) seeds were added to each well. The seeds were stratified at 4° C. in the dark for two days and then grown in on a rotary shaker (100 rpm/min) on a 16 h/8 h day/night cycle at 25° C. The number of seedlings that formed somatic embryos was counted two weeks later. […] Positive compounds were analysed using ChemMine (http://bioweb.ucr.edu/ChemMineV2/), ChemSpider (http://www.chemspider.com/) and the ZINC database (http://zinc.docking.org) for analogues with a putative biological function. […]

Assay [2] relates to Arabidopsis seedlings. Kind of assay: Testing of compounds for somatic embryogenesis activity in the presence of 2,4-D (FIG. 1). Conditions: in the presence of 1 μM 2,4-D.
Description: as §1, with “embryos. […]” for “embryos.”
Approximately 10 surface-sterilized Columbia (Col-0) seeds were added to each well. […] The number of seedlings that formed somatic embryos was counted two weeks later. […] Positive compounds were analysed using ChemMine (http://bioweb.ucr.edu/ChemMineV2/), ChemSpider (http://www.chemspider.com/) and the ZINC database (http://zinc.docking.org) for analogues with a putative biological function. […]

Assay [3] relates to Arabidopsis seedlings. In words: Somatic embryogenesis at increasing 2,4-D concentrations with or without 25 μM C#5 (FIG. 3). As for the experimental part:
All subsequent experiments were performed under the conditions described above, but using 100 ml containers (Greiner) containing 30 ml of medium media using approximately 30 seeds/container. All hormones were ordered from Duchefa and Dicamba from Sigma-Aldrich.
2,4-D is widely used to induce somatic embryogenesis from plant explant. In Arabidopsis immature zygotic embryos occasionally form somatic embryos when grown in basal medium, while germinating embryos or other vegetative tissues are unable to form embryos.

Each structure is given as a SMILES string.

`O=C(O)COc1ccc(Cl)cc1Cl` [2,4-D, 2,4-dichlorophenoxyacetic acid, reference compound]: the “Col0 seeds that form somatic embryos” value with Arabidopsis seedlings [1] (liquid medium containing 1 μM 2,4-D alone, circa 30 seeds in 30 ml medium) is recorded as “approximately 18%”.

With `CC1=C(C(=O)OC2CCCC2)C(c2ccncc2)C2=C(CC(C)(C)CC2=O)N1` (stereo not drawn) [C#5, cyclopentyl 2,7,7-trimethyl-5-oxo-4-(4-pyridinyl)-1,4,5,6,7,8-hexahydro-3-quinolinecarboxylate], the “level of SE, as measured by the percentage of seedlings with somatic embryos” value in the assay on Arabidopsis seedlings [2] is “high percentage”. For the same compound, the “somatic embryo formation in the absence of 2,4-D” value in the assay on Arabidopsis seedlings [3] (25 μM C#5, 0 μM 2,4-D) is “not able to induce somatic embryo formation”. For the same compound, the “somatic embryo formation at all of the tested 2,4-D concentrations” value in the assay with Arabidopsis seedlings [3] (25 μM C#5, 2,4-D up to 2 μM, versus control (2,4-D only)) is given as “did enhance somatic embryo formation”. For the same compound, the “threshold concentration of 2,4-D needed to achieve enhanced SE” value in the assay on Arabidopsis seedlings [3] (using 25 μM of C#5, seedlings grown in containers) is “about 0.4 μM”. The “seedlings with somatic embryo development” value with Arabidopsis seedlings [1] (at about 10 to about 50 μM compound, compared to circa 5% of seedlings in the control) is “about 50%”.

Source of the values: patent US20150296779A1, “SUBSTITUTED DIHYDROPYRIDINES FOR SOMATIC EMBRYOGENESIS IN PLANTS” (STICHTING DIENST LANDBOUWKUNDIG ONDERZOEK, priority 2012, published 2015).
